In patent US4234586A, “Nitrogen bridgehead compounds having anti-allergic effect” (Chinoin Gyogyszer es Vegyeszeti Termekek Gyara Rt., priority 1977, dated 1980):

Experiments:
rats [1] = test: PCA test (antiallergic effect, rats); type: in vivo, rat; settings: for ED50 / inhibition in vivo at 320 µM, 320 µmol/kg: Rattus norvegicus; for inhibition in vivo at 320 µM, 320 µmol/kg: single dose of 320 μM/kg, route not given, read-out: PCA test, percentage of activity for a single dose of 320 μM/kg
Procedure: (§1) The PCA text [Ovary: J. Immun. 81, 355 (1958)] and the Church test [British J. Pharm. 46, 56-66 (1972); Immunology 29, 527-534 (1975)] were used. The tests were carried out on rats.

Released Hist. = Released Hist. in vitro; type: cell-based; settings: Rattus norvegicus
Procedure: as §1

rats [2] = test: Church test (antiallergic effect, rats); type: in vivo; settings: Rattus norvegicus, iv
Procedure: as §1

asthma = settings: desired effect only by inhalation (spinhaler); cited from earlier work
[3] = iv, rats, i.v., second part of Table 1, read-out: PCA test ED50 i.v.
[4] = iv, read-out: ED50 in the PCA test, further compounds
[5] = iv, rats, i.v., read-out: PCA test ED50 i.v.
[6] = po, rats, p.o., read-out: PCA test ED50 p.o.

SMILES: CC1CCC(=NNc2ccc(Cl)cc2)c2ncc(C(=O)O)c(=O)n21 (centres unmarked) [Example 18, 9-(p-chloro-phenyl-hydrazono)-6-methyl-4-oxo-6,7,8,9-tetrahydro-4H-pyrido(1,2-a)pyrimidine-3-carboxylic acid]
- ED50 (rats [1]; [3]): 0.53 µmol/kg
- ED50 (rats [1]; [4]): 0.53 µmol/kg
- EC50 (Released Hist.; second part of Table 1): 100 µM

SMILES: CCOc1ccc(NN=C2CCC(C)n3c2ncc(C(=O)O)c3=O)cc1 (centres unmarked) [Example 35, 9-(p-ethoxy-phenyl-hydrazono)-6-methyl-4-oxo-6,7,8,9-tetrahydro-4H-pyrido(1,2-a)pyrimidine-3-carboxylic acid]
- ED50 (rats [1]; [4]): 1 µmol/kg
- inhibition in vivo at 320 µM, 320 µmol/kg (rats [1]; rats): 100%
- EC50 (Released Hist.; third part of Table 1): 17.6 µM

SMILES: O=C(O)c1cc(=O)c2c(OCC(O)COc3cccc4oc(C(=O)O)cc(=O)c34)cccc2o1 [Disodium-chromoglycate, reference compound]
- ED50 (rats [1]; [5]): 1 µmol/kg
- activity by route of administration (in words) (rats [1]; oral vs intravenous): effective only when administered intravenously
- PCA test ED50 p.o. (result in words) (rats [1]; rats, p.o.): ineffective
- ED50 (rats [2]): 0.84 µmol/kg
- anti-asthmatic effect when administered orally (asthma): ineffective when administered orally

SMILES: CC1CCC(=NNc2ccc(Br)cc2)c2ncc(C(=O)O)c(=O)n21 (centres unmarked) [Example 16, 9-(p-bromo-phenyl-hydrazono)-6-methyl-4-oxo-6,7,8,9-tetrahydro-4H-pyrido(1,2-a)pyrimidine-3-carboxylic acid]
- inhibition in vivo at 320 µM, 320 µmol/kg (rats [1]; rats): 100%
- EC50 (Released Hist.; third part of Table 1): 2 µM

SMILES: CC1CCC(=NNc2ccc(C(=O)O)cc2)c2ncc(C(=O)O)c(=O)n21 (centres unmarked) [Example 48, 9-(4-carboxy-phenyl-hydrazono)-6-methyl-4-oxo-6,7,8,9-tetrahydro-4H-pyrido(1,2-a)pyrimidine-3-carboxylic acid]
- inhibition in vivo at 320 µM, 320 µmol/kg (rats [1]; rats): 100%
- EC50 (Released Hist.; third part of Table 1): 100 µM

SMILES: CC1CCC(=NNc2ccccc2)c2ncc(C(=O)O)c(=O)n21 (centres unmarked) [Example 14, 9-(phenyl-hydrazono)-6-methyl-4-oxo-6,7,8,9-tetrahydro-4H-pyrido(1,2-a)pyrimidine-3-carboxylic acid]
- ED50 (rats [1]; [5]): 0.6 µmol/kg
- ED50 (rats [1]; [6]): 1.2 µmol/kg
- ED50 (rats [2]): 0.31 µmol/kg

SMILES: CC1CCC(=NNc2cccnc2)c2ncc(C(=O)O)c(=O)n21 (centres unmarked) [Example 23, 6-methyl-9-(3-pyridyl-hydrazono)-4-oxo-6,7,8,9-tetrahydro-4H-pyrido(1,2-a)pyrimidine-3-carboxylic acid]
- ED50 (rats [1]; [3]): 0.53 µmol/kg
- ED50 (rats [1]; [4]): 0.54 µmol/kg
- EC50 (Released Hist.; second part of Table 1): 120 µM

SMILES: CC1CCC(=NNc2ccccc2C(=O)O)c2ncc(C(=O)O)c(=O)n21 (centres unmarked) [Example 17, 9-(o-carboxy-phenyl-hydrazono)-6-methyl-4-oxo-6,7,8,9-tetrahydro-4H-pyrido(1,2-a)pyrimidine-3-carboxylic acid]
- ED50 (rats [1]; [4]): 0.48 µmol/kg

SMILES: Cc1cccc(NN=C2CCC(C)n3c2ncc(C(=O)O)c3=O)c1 (centres unmarked) [Example 50, 9-(3-methyl-phenyl-hydrazono)-6-methyl-4-oxo-6,7,8,9-tetrahydro-4H-pyrido(1,2-a)pyrimidine-3-carboxylic acid]
- inhibition in vivo at 320 µM, 320 µmol/kg (rats [1]; rats): 100%
- EC50 (Released Hist.; third part of Table 1): 73 µM

SMILES: CC1CCC(=NNc2ccc(Cl)c(Cl)c2)c2ncc(C(=O)O)c(=O)n21 (centres unmarked) [Example 41, 9-(3,4-dichloro-phenyl-hydrazono)-6-methyl-4-oxo-6,7,8,9-tetrahydro-4H-pyrido-(1,2-a)pyrimidine-3-carboxylic acid]
- inhibition in vivo at 320 µM, 320 µmol/kg (rats [1]; rats): 100%
- EC50 (Released Hist.; third part of Table 1): 100 µM

SMILES: CC1CCC(=NNc2ccccc2)c2ncc(C(=O)O)c(=O)n21 (single isomer, unassigned; (+)) [Example 37, (+)-9-(phenyl-hydrazono)-6-methyl-4-oxo-6,7,8,9-tetrahydro-4H-pyrido(1,2-a)pyrimidine-3-carboxylic acid]
- ED50 (rats [1]; [5]): 0.29 µmol/kg
- ED50 (rats [1]; [6]): 1 µmol/kg
- ED50 (rats [2]): 0.14 µmol/kg

SMILES: CC1CCC(=NNc2cccc([N+](=O)[O-])c2)c2ncc(C(=O)O)c(=O)n21 (centres unmarked) [Example 43, 9-(3-nitro-phenyl)-hydrazono-6-methyl-4-oxo-6,7,8,9-tetrahydro-4H-pyrido(1,2-a)pyrimidine-3-carboxylic acid]
- inhibition in vivo at 320 µM, 320 µmol/kg (rats [1]; rats): 100%
- EC50 (Released Hist.; third part of Table 1): 100 µM

SMILES: CC1CCC(=NN)c2ncc(C(=O)O)c(=O)n21 (centres unmarked) [Example 26, 9-hydrazono-6-methyl-4-oxo-6,7,8,9-tetrahydro-4H-pyrido(1,2-a)pyrimidine-3-carboxylic acid]
- inhibition in vivo at 320 µM, 320 µmol/kg (rats [1]; rats): 89%
- EC50 (Released Hist.; third part of Table 1): 90 µM

SMILES: CC1CCC(=NNc2cccc(Cl)c2)c2ncc(C(=O)O)c(=O)n21 (centres unmarked) [Example 45, 9-(3-chloro-phenyl-hydrazono)-6-methyl-4-oxo-6,7,8,9-tetrahydro-4H-pyrido(1,2-a)pyrimidine-3-carboxylic acid]
- inhibition in vivo at 320 µM, 320 µmol/kg (rats [1]; rats): 100%
- EC50 (Released Hist.; third part of Table 1): 312 µM
